In ChEMBL document CHEMBL4507317, “Data for DCP probe BAY-899” (2021):

How the values were obtained:
[1] = target: 5-hydroxytryptamine receptor 2B (Homo sapiens, UniProt P41595); test: GPCRScan assay: inhibition of 5-HT2B; set-up: radioligand conc. used [nm] 1.0 – 2.0, parental cells stable HEK
[2] = target: Lutropin-choriogonadotropic hormone receptor (Homo sapiens, UniProt P22888); test: Cell-based assay (LH Antagonism)
[3] = target: Delta-type opioid receptor (Homo sapiens) (UniProt P41143); conditions: Compound concentration 10.0 uM
Chain of Delta-type opioid receptor (Homo sapiens) (P41143 whole entry): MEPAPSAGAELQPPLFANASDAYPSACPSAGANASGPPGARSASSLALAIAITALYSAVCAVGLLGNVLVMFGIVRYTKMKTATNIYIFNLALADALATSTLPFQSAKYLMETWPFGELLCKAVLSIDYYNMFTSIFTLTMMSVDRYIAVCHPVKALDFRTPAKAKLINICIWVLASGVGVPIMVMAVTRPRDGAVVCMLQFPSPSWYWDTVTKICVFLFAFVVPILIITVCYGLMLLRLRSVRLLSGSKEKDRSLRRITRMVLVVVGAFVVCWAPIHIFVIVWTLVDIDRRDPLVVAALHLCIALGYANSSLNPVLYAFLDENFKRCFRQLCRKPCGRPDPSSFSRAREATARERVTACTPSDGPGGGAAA

[4] = target: Muscarinic acetylcholine receptor M3 (Homo sapiens) (UniProt P20309); conditions: Compound concentration 10.0 uM
Chain of Muscarinic acetylcholine receptor M3 (Homo sapiens) (P20309 whole entry, looked up): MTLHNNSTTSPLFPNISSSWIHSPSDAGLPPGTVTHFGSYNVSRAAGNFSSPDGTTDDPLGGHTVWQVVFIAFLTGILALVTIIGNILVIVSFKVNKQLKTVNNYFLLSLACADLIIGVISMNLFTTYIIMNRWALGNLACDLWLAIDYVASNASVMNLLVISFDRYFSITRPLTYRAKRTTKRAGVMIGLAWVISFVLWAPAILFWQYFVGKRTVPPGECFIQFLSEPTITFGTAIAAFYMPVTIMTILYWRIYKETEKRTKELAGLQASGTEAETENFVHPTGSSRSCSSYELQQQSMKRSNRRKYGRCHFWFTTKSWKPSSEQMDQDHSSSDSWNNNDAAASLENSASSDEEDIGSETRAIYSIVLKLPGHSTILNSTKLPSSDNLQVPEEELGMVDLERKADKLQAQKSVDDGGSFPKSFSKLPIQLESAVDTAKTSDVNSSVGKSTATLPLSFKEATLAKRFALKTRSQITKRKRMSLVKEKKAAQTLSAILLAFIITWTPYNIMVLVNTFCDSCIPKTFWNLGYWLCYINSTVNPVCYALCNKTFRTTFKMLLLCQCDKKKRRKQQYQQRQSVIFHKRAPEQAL

[5] = target: Beta-2 adrenergic receptor (Homo sapiens) (UniProt P07550); test: beta 2 Eurofins Bayer panel; conditions: Compound concentration 10.0 uM
Chain of Beta-2 adrenergic receptor (Homo sapiens) (P07550 whole entry, looked up): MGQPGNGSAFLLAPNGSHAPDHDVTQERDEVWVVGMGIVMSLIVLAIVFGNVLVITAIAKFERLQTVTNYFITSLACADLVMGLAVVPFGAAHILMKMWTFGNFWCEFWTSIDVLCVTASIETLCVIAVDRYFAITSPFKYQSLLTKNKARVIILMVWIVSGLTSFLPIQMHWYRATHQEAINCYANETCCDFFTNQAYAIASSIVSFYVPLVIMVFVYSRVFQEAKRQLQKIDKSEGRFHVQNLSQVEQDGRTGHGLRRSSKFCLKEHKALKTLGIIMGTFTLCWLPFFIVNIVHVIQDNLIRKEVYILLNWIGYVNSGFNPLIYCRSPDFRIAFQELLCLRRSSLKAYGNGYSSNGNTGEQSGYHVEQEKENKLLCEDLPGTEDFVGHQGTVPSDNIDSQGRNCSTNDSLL

[6] = target: D(1A) dopamine receptor (Homo sapiens) (UniProt P21728); test: D1 Eurofins Bayer panel; conditions: Compound concentration 10.0 uM
Chain of D(1A) dopamine receptor (Homo sapiens) (P21728 whole entry): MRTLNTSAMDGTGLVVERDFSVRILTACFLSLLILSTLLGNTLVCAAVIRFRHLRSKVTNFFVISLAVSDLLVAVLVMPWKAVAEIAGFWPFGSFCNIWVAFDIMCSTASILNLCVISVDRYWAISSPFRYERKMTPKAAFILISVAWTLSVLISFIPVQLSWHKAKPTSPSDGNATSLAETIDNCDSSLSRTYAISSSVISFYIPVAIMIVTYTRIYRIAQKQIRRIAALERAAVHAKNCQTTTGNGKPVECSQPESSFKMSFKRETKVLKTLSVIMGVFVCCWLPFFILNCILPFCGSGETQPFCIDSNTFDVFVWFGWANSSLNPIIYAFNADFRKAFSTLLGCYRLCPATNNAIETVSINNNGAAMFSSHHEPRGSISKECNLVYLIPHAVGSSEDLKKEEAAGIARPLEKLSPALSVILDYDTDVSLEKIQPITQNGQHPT

[7] = target: Histamine H1 receptor (Homo sapiens) (UniProt P35367); test: H1 Eurofins Bayer panel; conditions: Compound concentration 10.0 uM
Chain of Histamine H1 receptor (Homo sapiens) (P35367 whole entry): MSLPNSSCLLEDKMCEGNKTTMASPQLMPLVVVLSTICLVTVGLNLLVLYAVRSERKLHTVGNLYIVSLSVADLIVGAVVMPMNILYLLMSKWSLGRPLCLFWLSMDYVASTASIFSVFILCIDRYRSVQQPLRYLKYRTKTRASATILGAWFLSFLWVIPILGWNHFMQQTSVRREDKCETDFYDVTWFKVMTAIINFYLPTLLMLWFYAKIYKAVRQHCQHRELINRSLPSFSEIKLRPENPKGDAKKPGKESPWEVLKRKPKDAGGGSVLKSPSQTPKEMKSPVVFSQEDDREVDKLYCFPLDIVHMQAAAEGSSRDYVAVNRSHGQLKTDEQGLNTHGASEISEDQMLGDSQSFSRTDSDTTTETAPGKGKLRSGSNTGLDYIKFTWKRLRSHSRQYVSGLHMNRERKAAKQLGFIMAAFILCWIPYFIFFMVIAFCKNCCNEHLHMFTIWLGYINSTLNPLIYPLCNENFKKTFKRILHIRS

[8] = target: T1, Muscarinic acetylcholine receptor M1 (Homo sapiens) (UniProt P11229); test: M1 Eurofins Bayer panel; conditions: Compound concentration 10.0 uM
T1 sequence (whole entry): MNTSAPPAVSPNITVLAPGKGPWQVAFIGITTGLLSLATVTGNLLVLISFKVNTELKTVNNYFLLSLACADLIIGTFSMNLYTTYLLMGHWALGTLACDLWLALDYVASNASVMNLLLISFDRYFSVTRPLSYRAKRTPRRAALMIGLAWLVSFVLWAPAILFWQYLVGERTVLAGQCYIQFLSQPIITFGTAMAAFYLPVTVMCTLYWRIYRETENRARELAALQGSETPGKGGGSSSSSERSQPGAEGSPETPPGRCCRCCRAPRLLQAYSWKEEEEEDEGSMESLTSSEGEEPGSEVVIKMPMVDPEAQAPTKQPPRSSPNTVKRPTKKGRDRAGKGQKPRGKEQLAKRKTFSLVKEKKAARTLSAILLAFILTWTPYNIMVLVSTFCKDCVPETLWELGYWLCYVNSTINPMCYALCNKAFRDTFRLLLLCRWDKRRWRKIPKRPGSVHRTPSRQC

[9] = target: T2, Muscarinic acetylcholine receptor M4 (Homo sapiens) (UniProt P08173); test: M4 Eurofins Bayer panel; conditions: Compound concentration 10.0 uM
T2 sequence (whole entry): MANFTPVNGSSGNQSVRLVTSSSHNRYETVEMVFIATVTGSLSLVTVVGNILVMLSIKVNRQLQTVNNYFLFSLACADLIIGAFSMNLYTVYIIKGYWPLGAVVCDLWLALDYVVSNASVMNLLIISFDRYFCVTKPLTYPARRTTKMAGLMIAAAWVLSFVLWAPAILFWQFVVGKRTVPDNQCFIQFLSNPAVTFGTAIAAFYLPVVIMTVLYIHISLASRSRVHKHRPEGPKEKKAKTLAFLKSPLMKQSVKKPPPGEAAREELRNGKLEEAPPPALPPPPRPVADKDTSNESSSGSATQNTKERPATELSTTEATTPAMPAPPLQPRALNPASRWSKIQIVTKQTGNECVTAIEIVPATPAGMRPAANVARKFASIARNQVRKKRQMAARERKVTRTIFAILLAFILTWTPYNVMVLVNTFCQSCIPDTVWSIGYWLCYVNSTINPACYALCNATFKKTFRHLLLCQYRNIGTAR

[10] = target: Substance-P receptor (Homo sapiens) (UniProt P25103); test: NK1 Eurofins Bayer panel; conditions: Compound concentration 10.0 uM
Chain of Substance-P receptor (Homo sapiens) (P25103 whole entry): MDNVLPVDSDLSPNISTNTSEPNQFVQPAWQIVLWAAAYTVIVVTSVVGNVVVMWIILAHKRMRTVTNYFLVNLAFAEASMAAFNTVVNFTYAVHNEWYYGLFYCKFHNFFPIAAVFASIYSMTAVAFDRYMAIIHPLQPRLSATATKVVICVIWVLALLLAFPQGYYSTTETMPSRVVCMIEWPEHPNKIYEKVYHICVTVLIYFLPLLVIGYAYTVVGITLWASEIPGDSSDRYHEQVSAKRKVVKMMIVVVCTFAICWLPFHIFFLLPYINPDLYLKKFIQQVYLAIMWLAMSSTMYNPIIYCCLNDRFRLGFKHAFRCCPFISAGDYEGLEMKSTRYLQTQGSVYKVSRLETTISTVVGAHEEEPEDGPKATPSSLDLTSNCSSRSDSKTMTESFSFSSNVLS

[11] = target: Mu-type opioid receptor (Homo sapiens) (UniProt P35372); test: mu (MOP) Eurofins Bayer panel; conditions: Compound concentration 10.0 uM
Chain of Mu-type opioid receptor (Homo sapiens) (P35372 whole entry): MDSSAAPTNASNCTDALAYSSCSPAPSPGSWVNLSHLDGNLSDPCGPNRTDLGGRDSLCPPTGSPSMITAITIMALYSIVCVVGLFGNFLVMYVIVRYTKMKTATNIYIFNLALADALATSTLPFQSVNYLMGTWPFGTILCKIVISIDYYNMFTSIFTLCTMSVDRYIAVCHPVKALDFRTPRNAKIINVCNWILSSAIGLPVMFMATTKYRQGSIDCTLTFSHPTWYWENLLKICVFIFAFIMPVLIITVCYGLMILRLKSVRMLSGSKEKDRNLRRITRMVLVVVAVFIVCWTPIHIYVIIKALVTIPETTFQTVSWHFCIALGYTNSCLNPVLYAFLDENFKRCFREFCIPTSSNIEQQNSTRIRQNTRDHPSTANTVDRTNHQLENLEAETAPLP

Chain of Lutropin-choriogonadotropic hormone receptor (P22888 whole entry): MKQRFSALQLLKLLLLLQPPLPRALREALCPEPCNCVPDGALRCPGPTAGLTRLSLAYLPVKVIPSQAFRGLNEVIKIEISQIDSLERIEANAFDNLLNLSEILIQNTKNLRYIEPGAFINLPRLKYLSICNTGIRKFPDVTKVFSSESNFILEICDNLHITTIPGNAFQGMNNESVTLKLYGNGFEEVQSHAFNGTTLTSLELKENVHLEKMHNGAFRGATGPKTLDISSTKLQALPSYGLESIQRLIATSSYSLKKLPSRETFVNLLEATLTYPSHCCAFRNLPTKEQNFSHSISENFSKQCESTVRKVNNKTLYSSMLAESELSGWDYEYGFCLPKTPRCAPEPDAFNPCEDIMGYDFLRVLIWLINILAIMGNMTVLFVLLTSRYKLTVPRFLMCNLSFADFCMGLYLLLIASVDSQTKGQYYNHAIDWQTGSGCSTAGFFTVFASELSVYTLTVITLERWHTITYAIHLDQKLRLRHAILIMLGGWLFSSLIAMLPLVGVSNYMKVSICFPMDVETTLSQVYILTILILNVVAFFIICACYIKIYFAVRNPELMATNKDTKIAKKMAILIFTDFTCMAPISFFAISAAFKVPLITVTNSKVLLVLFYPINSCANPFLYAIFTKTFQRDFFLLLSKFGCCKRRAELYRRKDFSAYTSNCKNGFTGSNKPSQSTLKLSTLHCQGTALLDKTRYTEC
Chain of 5-hydroxytryptamine receptor 2B (P41595 whole entry): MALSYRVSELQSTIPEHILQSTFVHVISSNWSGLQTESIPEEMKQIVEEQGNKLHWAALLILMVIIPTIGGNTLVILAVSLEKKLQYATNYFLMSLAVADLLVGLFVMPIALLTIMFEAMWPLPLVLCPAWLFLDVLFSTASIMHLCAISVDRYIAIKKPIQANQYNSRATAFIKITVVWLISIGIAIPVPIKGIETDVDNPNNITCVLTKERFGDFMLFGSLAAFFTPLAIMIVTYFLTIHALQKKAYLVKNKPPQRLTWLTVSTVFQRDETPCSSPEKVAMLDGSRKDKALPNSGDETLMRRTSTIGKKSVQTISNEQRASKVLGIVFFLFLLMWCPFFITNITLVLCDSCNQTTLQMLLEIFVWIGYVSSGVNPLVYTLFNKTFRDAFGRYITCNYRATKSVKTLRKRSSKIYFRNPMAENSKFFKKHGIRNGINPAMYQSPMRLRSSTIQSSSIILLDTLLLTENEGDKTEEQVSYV

| Compound | Ki [1] [µM] | IC50 [2] | inhibition [3] [%] | inhibition [4] [%] | Activation (% of control) [5] [%] | Inhibition (% of control) [5] [%] | Activation (% of control) [6] [%] | Inhibition (% of control) [6] [%] | Activation (% of control) [7] [%] | Inhibition (% of control) [7] [%] | Activation (% of control) [8] [%] | Inhibition (% of control) [8] [%] | Activation (% of control) [9] [%] | Inhibition (% of control) [9] [%] | Activation (% of control) [10] [%] | Inhibition (% of control) [10] [%] | Activation (% of control) [11] [%] | Inhibition (% of control) [11] [%] |
| --- | --- | --- | --- | --- | --- | --- | --- | --- | --- | --- | --- | --- | --- | --- | --- | --- | --- | --- |
| O=C(Nc1ccc(Oc2ccc(F)cc2)cc1)N1CCc2ncccc2[C@H]1c1ccc(F)cc1 [BAY-897] | 5.25 | > 16 µM (not active) | 32.7 | -3.47 |  |  |  |  |  |  |  |  |  |  |  |  |  |  |
| O=C(Nc1cnc(Oc2ccc(F)cc2)nc1)N1CCc2ncccc2[C@@H]1c1ccc(F)cc1 [BAY-899] |  |  |  |  | -3 | 26 | -1 | 15 | -4 | 4 | 1 | 32 | -6 | 2 | -3 | 24 | 56 | 8 |
